The numbers were not newly measured in patent US6514531B1, “Controlled-release dosage forms comprising zolpidem or a salt thereof” (Sanofi-Synthelabo, priority 1998, dated 2003), which cites them from elsewhere.

Turning to `Cc1ccc(-c2nc3ccc(C)cn3c2CC(=O)N(C)C)cc1` [zolpidem], the “kinetics in the therapeutical dose range” value (between 5 and 10 mg in conventional forms) is listed as “linear kinetics”. Moreover, the duration of action result (hypnotic action, oral, conventional forms) is listed as “up to 6 hours”.
